Measurements published in patent publication US20030144292A1, “Carbocyclic side chain containing, N-substituted metalloprotease inhibitors” (priority 2000, published 2003).

Key:
Assay type in all cases: in vivo
[1] = test system: human subject suffering from rheumatoid arthritis; test: Example A: oral tablet treatment of rheumatoid arthritis; conditions: tablet with 15 mg compound, three tablets per day orally for 2 years
Procedure: A tablet composition for oral administration, according to the present invention, is made comprising:
A human subject weighing 60 kg (132 lbs), suffering from rheumatoid arthritis, is treated by a method of this invention. Specifically, for 2 years, a regimen of three tablets per day is administered orally to said subject.

[2] = test system: human subject with a premetastatic tumor; test: Example G: parenteral suspension injected next to a premetastatic tumor; conditions: 100 mg/mL suspension, about 2.0 mL injected beside the tumor twice daily, after 30 days
Procedure: A composition for parenteral administration is made comprising:
The above ingredients are mixed, forming a suspension. Approximately 2.0 mL of the suspension is administered, via injection, to a human subject with a premetastatic tumor. The injection site juxtaposes the tumor. This dosage is repeated twice daily, for approximately 30 days.

[3] = test system: human subject suffering from osteoarthritis; test: Example B: oral capsule treatment of osteoarthritis; conditions: capsule containing 70 mg daily for 5 years
Procedure: A capsule for oral administration, according to the present invention, is made comprising:
A human subject weighing 90 kg (198 lbs.), suffering from osteoarthritis, is treated by a method of this invention. Specifically, for 5 years, a capsule containing 70 mg of the compound of Example 3 is administered daily to said subject.

[4] = test system: patient having deep corneal abrasion; test: Example C: saline-based eye drop for deep corneal abrasion; conditions: 5% w/w drop to each eye twice a day
Text: A saline-based composition for local administration, according to the present invention, is made comprising:
A patient having deep corneal abrasion applies the drop to each eye twice a day.

[5] = test system: asthma sufferer; test: Example E: inhalation aerosol for asthma; conditions: 5.0% w/v aerosol, 0.01 mL sprayed into the mouth while inhaling
[6] = test system: patient suffering from chemical burns; test: Example D: topical composition for chemical burns; conditions: 0.20% w/v topical composition at each dressing change (b.i.d.)
Text: A topical composition for local administration, according to the present invention, is made comprising:
A patient suffering from chemical burns applies the composition at each dressing change (b.i.d.).

COc1ccc(-c2ccc(S(=O)(=O)N(C)C(C(=O)O)C3CCC(O)CC3)cc2)cc1 (centres unmarked) [Example 1, N-{[4′-Methoxy-(1,1′-biphenyl)-4-yl]-sulfonyl-N-methyl-amino}-(4-hydroxycyclohexan-1-yl)-acetic Acid]
inflammation at end of treatment period [1]: reduced inflammation
mobility and pain at end of treatment period [1]: improved mobility without concomitant pain

COc1ccc(-c2ccc(S(=O)(=O)N(C)[C@@H](C(=O)O)C3CCC4(CC3)OCCCO4)cc2)cc1 [Example 2, (R)-N-{[4′-methoxy-(1,1′-biphenyl)-4-yl]-sulfonyl}-N-methylamino-(1,5-dioxa-spiro[5.5]undec-9-yl)-acetic Acid]
symptoms of the disease [2]: subside

CN([C@@H](C(=O)O)C1CCC2(CC1)OCCCO2)S(=O)(=O)c1ccc(-c2ccc(Br)cc2)cc1 [Example 3, (R)-N-{[4′-bromo-(1,1′-biphenyl)-4-yl]-sulfonyl}-N-methylamino-(1,5-dioxa-spiro[5.5]undec-9-yl)-acetic Acid]
advancement of erosion/fibrillation of the articular cartilage (x-ray, arthroscopy and/or MRI) [3]: no further advancement

COc1ccc(-c2ccc(S(=O)(=O)N(C)C(C(=O)O)C3(SC)CCCC4(C3)OCCO4)cc2)cc1 (centres unmarked) [Example 10, (7-methylthio-1,4-Dioxaspiro[4.5]dec-7-yl)-N-{[4′-Methoxy-(1,1′-biphenyl)-4-yl]-sulfonyl}-N-methylamino-acetic Acid]
healing of corneal abrasion [4]: speeded
visual sequelae [4]: no visual sequelae

COc1ccc(-c2ccc(S(=O)(=O)N(C)C(C(=O)O)C3CCC(N4CCCC4=O)CC3)cc2)cc1 (centres unmarked) [Example 19, N-{[4′-Methoxy-(1,1′-biphenyl)-4-yl]-sulfonyl-N-methylamino}-[4-(2-oxopyrrolidin-1N-yl)-cyclohexan-1-yl]-acetic Acid]
asthma symptoms [5]: diminished

COc1ccc(-c2ccc(S(=O)(=O)N(C)C(C(=O)O)C3CCC(N4CCOC4=O)CC3)cc2)cc1 (centres unmarked) [Example 21, N-{[4′-Methoxy-(1,1′-biphenyl)-4-yl]-sulfonyl-N-methylamino}-[4-(oxazolidin-2-one-3N-yl)-cyclohexan-1-yl]-acetic Acid]
scarring [6]: substantially diminished
